Assay results: ChEMBL document CHEMBL1800066 (J Med Chem, 2011)

Legend:
[1] = target: Vascular endothelial growth factor receptor 1 (Homo sapiens, UniProt P17948); assay: Inhibition of human Flt1
Canis familiaris = assay: Oral bioavailability in dog at 2 mg/kg; assay type: ADME, organism-based, Canis lupus familiaris; settings: in vivo
[2] = Oral bioavailability in rat at 5 mg/kg; assay type: ADME, organism-based; settings: in vivo
[3] = target: T1, Hepatocyte growth factor receptor (Homo sapiens, UniProt P08581); assay: Binding affinity to human recombinant His6-tagged unphosphorylated c-Met cytosolic domain
Cytochrome P450 2D6 = Cytochrome P450 2D6 (Homo sapiens, UniProt P10635); assay: Inhibition of CYP2D6; assay type: ADME
[4] = AUC (0 to infinity) in mouse at 2 mg/kg, po; assay type: ADME, organism-based; parameters: time infinity, dose 2 mg/kg, route oral; settings: plasma
[5] = Tmax in monkey at 0.5 mg/kg, po; assay type: ADME, organism-based, Macaca mulatta; parameters: dose 0.5 mg/kg, route oral; settings: rhesus monkey, in vivo
[6] = Oral bioavailability in mouse at 2 mg/kg; assay type: ADME, organism-based; settings: in vivo
[7] = target: Vascular endothelial growth factor receptor 2 (Homo sapiens, UniProt P35968); assay: Inhibition of human KDR
[8] = target: T1, Hepatocyte growth factor receptor
[9] = Oral bioavailability in monkey at 0.5 mg/kg; assay type: ADME, organism-based, Macaca mulatta; settings: rhesus monkey, in vivo
[10] = target: Tyrosine-protein kinase ABL1 (Homo sapiens, UniProt P00519); assay: Inhibition of human Abl
[11] = target: Macrophage-stimulating protein receptor (Homo sapiens, UniProt Q04912); assay: Inhibition of human Ron
Aurora kinase A = Aurora kinase A (Homo sapiens, UniProt O14965); assay: Inhibition of human Aurora A
[12] = Tmax in rat at 5 mg/kg, po; assay type: ADME, organism-based; parameters: dose 5 mg/kg, route oral; settings: in vivo
[13] = Plasma clearance in mouse at 1 mg/kg, iv; assay type: ADME, organism-based; parameters: dose 1 mg/kg, route intravenous
[14] = Volume of distribution at steady state in monkey at 0.25 mg/kg, iv; assay type: ADME, organism-based, Macaca mulatta; parameters: dose 0.25 mg/kg, route intravenous; settings: rhesus monkey, in vivo, read-out: Vdss
[15] = target: T1, Hepatocyte growth factor receptor; assay: Inhibition of c-MET overexpressed in human GTL-16 cells assessed as phosphorylation at C-terminal Y1235 after 2 hrs by Western blot analysis; assay type: cell-based
Mus musculus = assay: Toxicity in human GTL16 cells xenografted CD1 nu/nu mouse assessed as change in median body weight at 200 mg/kg, po QD; assay type: organism-based; parameters: dose 200 mg/kg, route oral; settings: in vivo
[16] = target: T1, Hepatocyte growth factor receptor; assay: Inhibition of c-MET overexpressed in human GTL-16 cells assessed as phosphorylation at C-terminal Y1234 after 2 hrs by Western blot analysis; assay type: cell-based
[17] = target: T1, Hepatocyte growth factor receptor; assay: Inhibition of recombinant human c-MET phosphorylation at C-terminal Y1234
[18] = target: Voltage-gated inwardly rectifying potassium channel KCNH2 (Homo sapiens, UniProt Q12809); assay: Inhibition of Kv11.1 channel
[19] = Plasma clearance in monkey at 0.25 mg/kg, iv; assay type: ADME, organism-based, Macaca mulatta; parameters: dose 0.25 mg/kg, route intravenous; settings: rhesus monkey
[20] = target: Hepatocyte growth factor receptor (Homo sapiens, UniProt P08581, M1250T)
[21] = Tmax in mouse at 2 mg/kg, po; assay type: ADME, organism-based; parameters: dose 2 mg/kg, route oral; settings: in vivo

CN(C[C@@H]1COCCO1)S(=O)(=O)Nc1ccc2ccc3ncc(-c4cnn(C)c4)cc3c(=O)c2c1 [MK-2461]
IC50 [1]: 0.01 µM
F (Canis familiaris): 13%
bioavailability [2]: 62%
Kd [3]: 0.025 µM
IC50 (Cytochrome P450 2D6): > 100 µM
AUC(0-inf) [4]: 0.6 µM·h
Tmax [5]: 180 min
bioavailability [6]: 75%
IC50 [7]: 0.044 µM
IC50 [8]: 0.002 µM
bioavailability [9]: 14%
IC50 [10]: 7.8 µM
IC50 [11]: 0.007 µM
IC50 (Aurora kinase A): 0.29 µM
Tmax [12]: 42 min
clearance [13]: 83 mL/min/kg
Vd [14]: 0.5 L/kg
IC50 [15]: > 2.5 µM
Activity (Mus musculus): Non-toxic
IC50 [16]: > 2.5 µM
IC50 [17]: 0.9 µM
IC50 [18]: > 30 µM
clearance [19]: 8.4 mL/min/kg
IC50 [20]: 0.0004 µM
Tmax [21]: 18 min
